Patent publication US12679839B2, “Cyclin-dependent kinase 7 (CDK7) non-covalent inhibitors” (JANSSEN PHARMACEUTICA NV, priority 2020, dated 2026)

What was measured:
[1] = target: T1, CDK7/Cyclin H/MAT-1 complex (Homo sapiens, UniProt P50613); test: Absorbance kinetic assay (20 nM CDK7/Cyclin H/MAT-1 complex); assay type: biochemical; settings: for IC50: read-out: CDK7 (20 nM) pIC50 (converted)
T1 construct: Human CDK7 (amino acids 1-346); His6 (N); TEV protease cleavage site (N); made in house; host or cells: baculovirus-SF9 insect cells
T1 sequence (P50613 whole entry, the tested form may be a part): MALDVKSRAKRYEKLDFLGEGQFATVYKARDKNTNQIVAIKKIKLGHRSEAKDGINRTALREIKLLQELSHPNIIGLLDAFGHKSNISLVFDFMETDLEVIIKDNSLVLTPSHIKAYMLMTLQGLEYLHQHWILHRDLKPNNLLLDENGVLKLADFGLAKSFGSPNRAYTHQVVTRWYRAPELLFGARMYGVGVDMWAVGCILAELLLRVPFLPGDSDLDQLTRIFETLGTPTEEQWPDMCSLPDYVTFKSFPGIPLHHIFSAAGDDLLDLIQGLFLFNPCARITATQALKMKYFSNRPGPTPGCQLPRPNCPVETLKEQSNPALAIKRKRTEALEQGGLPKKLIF
T1 sequence (P51946 whole entry partner, the tested form may be a part): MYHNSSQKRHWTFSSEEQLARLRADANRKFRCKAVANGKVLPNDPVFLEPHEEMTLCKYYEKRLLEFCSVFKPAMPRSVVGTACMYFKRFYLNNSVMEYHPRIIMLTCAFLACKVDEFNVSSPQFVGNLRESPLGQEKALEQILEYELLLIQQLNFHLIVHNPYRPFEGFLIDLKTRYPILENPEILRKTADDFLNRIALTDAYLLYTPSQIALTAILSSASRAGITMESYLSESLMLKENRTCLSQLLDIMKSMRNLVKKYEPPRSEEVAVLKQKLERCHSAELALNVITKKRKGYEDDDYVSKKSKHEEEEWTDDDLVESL
T1 sequence (P51948 whole entry partner, the tested form may be a part): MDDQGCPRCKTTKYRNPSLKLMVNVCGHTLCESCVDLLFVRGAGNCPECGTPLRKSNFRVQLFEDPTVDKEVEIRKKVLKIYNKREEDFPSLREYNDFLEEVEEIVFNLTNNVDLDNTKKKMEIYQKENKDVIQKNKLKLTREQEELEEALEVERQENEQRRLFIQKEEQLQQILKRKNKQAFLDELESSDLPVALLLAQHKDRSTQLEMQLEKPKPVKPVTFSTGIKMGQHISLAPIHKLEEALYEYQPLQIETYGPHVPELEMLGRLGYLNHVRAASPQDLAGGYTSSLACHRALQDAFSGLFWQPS
Summary of the method: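 Trimeric complex (His6-TEV CDK7 1-346, MAT1 1-309, cyclin H 1-323) from Sf9 cells, at 20 nM, phosphorylating RNA Pol II-derived CDK7/9-tide; ADP coupled via PK/LDH to NADH depletion read at 340 nm every 2 min for 8 h. Steady-state slopes gave % inhibition; IC50 from 11-point Hill fit.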

SMILES	CDK7 (20 nM) pIC50 [1]	IC50 [1]	other results
C[C@@H]1Cc2cnc(NC3CCOCC3)nc2CN1C(=O)[C@H]1CCN(C)C[C@@H]1c1ccccc1 [Compound 47]	>7.7		melting point: 162.7 °C
Cc1cc(CNc2ncc3c(n2)CN(C(=O)[C@H]2CCN(C)C[C@@H]2c2ccccc2)[C@H](C)C3)nn1C [Compound 65]	7.58		
C[C@H]1Cc2cnc(NC3CCOCC3)cc2CN1C(=O)[C@H]1CCN(C)C[C@@H]1c1ccccc1 (single isomer, unassigned) [Compound 171a]		9.77 nM	
CN1CC[C@H](C(=O)N2Cc3nc(NC4CCOCC4)ncc3[C@@H]3C[C@@H]32)[C@@H](c2ccccc2)C1 [Compound 199]	>8.01		
C[C@@H]1Cc2cnc(N[C@H](C)c3ccccc3)nc2CN1C(=O)[C@H]1CCN(C)C[C@@H]1c1ccccc1 [Compound 22]	8.01		
C[C@@H]1Cc2cnc(NC[C@@H]3CCCO3)nc2CN1C(=O)[C@H]1CCN(C)C[C@@H]1c1ccccc1 [Compound 67]		< 9.77 nM	
CO[C@]1(C)CC[C@@H](Nc2ncc3c(n2)CN(C(=O)[C@H]2CCN(C)C[C@@H]2c2ccccc2)[C@H](C)C3)CC1 [Compound 10]	>8.01		
C[C@@H]1Cc2cnc(N[C@@H]3CCOC(C)(C)C3)nc2CN1C(=O)[C@H]1CCN(C)C[C@@H]1c1ccccc1 (relative stereo) [Compound 40]		11 nM	
CN1CC[C@H](C(=O)N2Cc3nc(NC4CCOCC4)ncc3C(C)(C)C2)[C@@H](c2ccccc2)C1 [Compound 193]	6.75		
C[C@@H]1Cc2cnc(N[C@@H](CO)c3ccccc3)nc2CN1C(=O)[C@H]1CCN(C)C[C@@H]1c1ccccc1 [Compound 71]	>8.01		
Cc1cccc([C@H]2CN(C)CC[C@@H]2C(=O)N2Cc3nc(Nc4cnn(C)c4)ncc3C[C@H]2C)c1 (relative stereo) [Compound 126]		15.5 nM	
Cc1ncc(CNc2ncc3c(n2)CN(C(=O)[C@H]2CCN(C)C[C@@H]2c2ccccc2)[C@H](C)C3)[nH]1 [Compound 52]	7.97		
C[C@@H]1Cc2cnc(N[C@H]3CCC(=O)N(C)C3)nc2CN1C(=O)[C@H]1CCN(C)C[C@@H]1c1ccccc1 (relative stereo) [Compound 7]		< 9.77 nM	
C[C@H]1Cc2cnc(Nc3cnn(C)c3)cc2CN1C(=O)[C@H]1CCN(C)C[C@@H]1c1ccccc1 (relative stereo) [Compound 176]		22.9 nM	
C[C@@H]1Cc2cnc(NC3CCC(OC(F)F)CC3)nc2CN1C(=O)[C@H]1CCN(C)C[C@@H]1c1ccccc1 (some centres unmarked) [Compound 69]	>8.01		
C[C@@H]1Cc2cnc(N[C@@H]3CCOC4(CCC4)C3)nc2CN1C(=O)[C@H]1CCN(C)C[C@@H]1c1ccccc1 (relative stereo) [Compound 8]		< 9.77 nM	
C[C@@H]1Cc2cnc(NCC3CCS(=O)(=O)C3)nc2CN1C(=O)[C@H]1CCN(C)C[C@@H]1c1ccccc1 (some centres unmarked) [Compound 49]	6.62		
C[C@@H]1Cc2cnc(N[C@H](C)c3ccn(C)n3)nc2CN1C(=O)[C@H]1CCN(C)C[C@@H]1c1ccccc1 (single isomer, unassigned) [Compound 54]		12.3 nM	
CC(C)N1CC[C@H](C(=O)N2Cc3nc(NC4CCOCC4)ncc3C[C@H]2C)[C@@H](c2cccc(Cl)c2)C1 (single isomer, unassigned) [Compound 160]	6.96		
CC(C)n1ccc(CNc2ncc3c(n2)CN(C(=O)[C@H]2CCN(C)C[C@@H]2c2ccccc2)[C@H](C)C3)n1 [Compound 66]	>8.01		
CC(C)N1CCN(C(=O)N2Cc3nc(NC4CCOCC4)ncc3C[C@H]2C)[C@@H](c2ccccc2)C1 [Compound 206]	7.79		
C[C@@H]1Cc2cnc(N[C@H](CO)c3ccccc3)nc2CN1C(=O)[C@H]1CCN(C)C[C@@H]1c1ccccc1 [Compound 72]	8.01		
